Measurements: US20250179066A1, “ZWITTERIONIC ANTIBACTERIAL COMPOUNDS” (Hoffmann-La Roche Inc., priority 2022, published 2025)
Counter-ions that a name gives are not always drawn. Like-named read-outs stand apart in the source and are kept apart here.

System: Acinetobacter baumannii ATCC17961
Assay: Antimicrobial susceptibility testing: 90% growth inhibitory concentration (IC90) determination
Type: cell-based
Conditions: 90% growth inhibitory concentration against Acinetobacter baumannii ATCC17961, Iso-Sensitest broth, OD 600 nm over 16 h, read-out: ATCC 17961 IC90
Procedure, shortened: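 OD600 monitored each minute over 16 h at 35±2° C for bacteria (~5×10^5 CFU/mL final) in Iso-Sensitest medium with 10-point twofold compound series (e.g. 10-0.0195 μM final). Concentration giving 90% growth inhibition in log phase reported as IC90.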

[1] = Acinetobacter baumannii, ATCC17961, 16 h

IC90 [nM] | IC90 [1] [nM] | SMILES
870 | – | Cn1c(-c2cn(-c3ccc(NCCN)cn3)nc2C(F)(F)F)cnc1C(=O)Nc1ccc(C(=O)N2CCN(C(=O)[C@H]3CC[N@+](CC(=O)O)(CC4CNC4)CC3)CC2)c(Cl)c1 [Example 73, cis-2-[4-[4-[4-[[5-[1-[5-(2-aminoethylamino)-2-pyridyl]-3-(trifluoromethyl)pyrazol-4-yl]-1-methyl-imidazole-2-carbonyl]amino]-2-chloro-benzoyl]piperazine-1-carbonyl]-1-(azetidin-3-ylmethyl)piperidin-1-ium-1-yl]acetic acid; formic acid; formate]
– | 940 | Cn1c(-c2cn(-c3ccnc(N)c3)nc2C(F)(F)F)cnc1C(=O)Nc1ccc(C(=O)N2CCN(C(=O)C3CC[N+](CC(=O)O)(CC4CNC4)CC3)CC2)c(Cl)c1 (stereo not shown) [Example 74, 2-[4-[4-[4-[[5-[1-(2-amino-4-pyridyl)-3-(trifluoromethyl)pyrazol-4-yl]-1-methyl-imidazole-2-carbonyl]amino]-2-chloro-benzoyl]piperazine-1-carbonyl]-1-(azetidin-3-ylmethyl)piperidin-1-ium-1-yl]acetic acid. 1:1 2,2,2-trifluoroacetate]
– | 950 | Cn1c(-c2cn(-c3ccc(N)cn3)nc2C(F)(F)F)cnc1C(=O)Nc1ccc(C(=O)N2CCC(C(=O)N3CC[N+](CCCN)(CC(=O)O)CC3)CC2)c(Cl)c1 [Example 75, 2-[1-(3-aminopropyl)-4-[1-[4-[[5-[1-(5-amino-2-pyridyl)-3-(trifluoromethyl)pyrazol-4-yl]-1-methyl-imidazole-2-carbonyl]amino]-2-chloro-benzoyl]piperidine-4-carbonyl]piperazin-1-ium-1-yl]acetic acid. 1:1 2,2,2-trifluoroacetate]
– | 1030 | Cn1c(-c2cn(-c3ccc(C#N)cn3)nc2C(F)(F)F)cnc1C(=O)Nc1ccc(C(=O)N2CCN(C(=O)C3CC[N+](CC(=O)O)(CC4CNC4)CC3)CC2)c(Cl)c1 (stereo not shown) [Example 76, 2-[1-(azetidin-3-ylmethyl)-4-[4-[2-chloro-4-[[5-[1-(5-cyano-2-pyridyl)-3-(trifluoromethyl)pyrazol-4-yl]-1-methyl-imidazole-2-carbonyl]amino]benzoyl]piperazine-1-carbonyl]piperidin-1-ium-1-yl]acetic acid. 1:1 formate]
– | 1100 | C[C@H]1CN(C(=O)c2ccc(NC(=O)c3ncc(-c4cn(-c5ccc(N)cn5)nc4C(F)(F)F)n3C)cc2Cl)CCN1C(=O)C1CC[N+](CC(=O)O)(CC2CNC2)CC1 (stereo partly drawn) [Example 77, 2-[4-[(2S)-4-[4-[[5-[1-(5-amino-2-pyridyl)-3-(trifluoromethyl)pyrazol-4-yl]-1-methyl-imidazole-2-carbonyl]amino]-2-chloro-benzoyl]-2-methyl-piperazine-1-carbonyl]-1-(azetidin-3-ylmethyl)piperidin-1-ium-1-yl]acetic acid. 1:1 formate]
– | 1110 | CC[C@@H]1CN(C(=O)C2CC[N+](CC(=O)O)(CC3CNC3)CC2)CCN1C(=O)c1ccc(NC(=O)c2ncc(-c3cn(-c4ccc(N)cn4)nc3C(F)(F)F)n2C)cc1Cl (stereo partly drawn) [Example 78, 2-[4-[(3R)-4-[4-[[5-[1-(5-amino-2-pyridyl)-3-(trifluoromethyl)pyrazol-4-yl]-1-methyl-imidazole-2-carbonyl]amino]-2-chloro-benzoyl]-3-ethyl-piperazine-1-carbonyl]-1-(azetidin-3-ylmethyl)piperidin-1-ium-1-yl]acetic acid. 1:1 formate]
– | 1120 | C[C@H]1CN(C(=O)C2CC[N+](CC(=O)O)(CC3CNC3)CC2)CCN1C(=O)c1ccc(NC(=O)c2ncc(-c3cn(-c4ccc(N)cn4)nc3C(F)(F)F)n2C)cc1Cl (stereo partly drawn) [Example 79, 2-[4-[(3S)-4-[4-[[5-[1-(5-amino-2-pyridyl)-3-(trifluoromethyl)pyrazol-4-yl]-1-methyl-imidazole-2-carbonyl]amino]-2-chloro-benzoyl]-3-methyl-piperazine-1-carbonyl]-1-(azetidin-3-ylmethyl)piperidin-1-ium-1-yl]acetic acid. 1:1 formate]
– | 1200 | Cn1c(-c2cn(-c3nc4ccccc4s3)nc2C(F)(F)F)cnc1C(=O)Nc1ccc(C(=O)N2CCN(C(=O)C3CC[N+](CC(=O)O)(CC4CNC4)CC3)CC2)c(Cl)c1 (stereo not shown) [Example 80, 2-[1-(azetidin-3-ylmethyl)-4-[4-[4-[[5-[1-(1,3-benzothiazol-2-yl)-3-(trifluoromethyl)pyrazol-4-yl]-1-methyl-imidazole-2-carbonyl]amino]-2-chloro-benzoyl]piperazine-1-carbonyl]piperidin-1-ium-1-yl]acetic acid. 1:1 formate]
– | 1210 | Cn1c(-c2cn(-c3ccc(N)cn3)nc2C(F)(F)F)cnc1C(=O)Nc1ccc(C(=O)N2CCN(C(=O)[C@@H](N)CCCCNCC(=O)O)CC2)c(Cl)c1 [Example 81, 2-[[(5S)-amino-6-[4-[4-[[5-[1-(5-amino-2-pyridyl)-3-(trifluoromethyl)pyrazol-4-yl]-1-methyl-imidazole-2-carbonyl]amino]-2-chloro-benzoyl]piperazino]-6-keto-hexyl]amino]acetic acid. 1:1 2,2,2-trifluoroacetic acid]
– | 1220 | COc1ccc(-n2cc(-c3cnc(C(=O)Nc4ccc(C(=O)N5CCN(C(=O)C6CC[N+](CC(=O)O)(CC7CNC7)CC6)CC5)c(Cl)c4)n3C)c(C(F)(F)F)n2)cn1 (stereo not shown) [Example 82, 2-[1-(azetidin-3-ylmethyl)-4-[4-[2-chloro-4-[[5-[1-(6-methoxy-3-pyridyl)-3-(trifluoromethyl)pyrazol-4-yl]-1-methyl-imidazole-2-carbonyl]amino]benzoyl]piperazine-1-carbonyl]piperidin-1-ium-1-yl]acetic acid. 1:1 2,2,2-trifluoroacetate]
– | 1240 | Cn1c(-c2cn(-c3ccc(N)cn3)nc2C(F)(F)F)cnc1C(=O)Nc1ccc(C(=O)N2CCN(C(=O)C[C@H](N)C(=O)O)CC2)c(Cl)c1 [Example 83, (2S)-2-amino-4-[4-[4-[[5-[1-(5-amino-2-pyridyl)-3-(trifluoromethyl)pyrazol-4-yl]-1-methyl-imidazole-2-carbonyl]amino]-2-chloro-benzoyl]piperazino]-4-keto-butyric acid. 1:1 2,2,2-trifluoroacetic acid]
– | 1280 | CN(C)Cc1ccc(-n2cc(-c3cnc(C(=O)Nc4ccc(C(=O)N5CCN(C(=O)C6CC[N+](CC(=O)O)(CC7CNC7)CC6)CC5)c(Cl)c4)n3C)c(C(F)(F)F)n2)nc1 (stereo not shown) [Example 84, 2-[1-(azetidin-3-ylmethyl)-4-[4-[2-chloro-4-[[5-[1-[5-[(dimethylamino)methyl]-2-pyridyl]-3-(trifluoromethyl)pyrazol-4-yl]-1-methyl-imidazole-2-carbonyl]amino]benzoyl]piperazine-1-carbonyl]piperidin-1-ium-1-yl]acetic acid. 1:1 formic acid. 1:1 formate]
– | 1360 | Cn1c(-c2cn(-c3ccc(N)cn3)nc2C(F)(F)F)cnc1C(=O)Nc1ccc(C(=O)N2CCN(C(=O)[C@H](N)CC(=O)O)CC2)c(Cl)c1 [Example 85, (3R)-3-amino-4-[4-[4-[[5-[1-(5-amino-2-pyridyl)-3-(trifluoromethyl)pyrazol-4-yl]-1-methyl-imidazole-2-carbonyl]amino]-2-chloro-benzoyl]piperazino]-4-keto-butyric acid. 1:1 2,2,2-trifluoroacetic acid]
